Laboratory results reported in patent US20050009837A1, “Modulators of lipid metabolism and methods of use” (City of Hope, priority 2003, published 2005).

Columns and labels:
[1] = test system: SRE reporter (FAS proximal promoter); assay: SRE reporter (FAS proximal promoter-luciferase) assay in CV-1 cells; assay type: cell-based
Experimental: Since LXR regulates SREBP-1c expression, LXR also should regulate activities downstream of SREBP-1c. To test this, CV-1 cells were transiently transfected with as in Example 6, but with the SRE or the SREm reporter, SREBP-1c-dependent reporter constructs consisting of the FAS proximal promoter linked to the luciferase gene. […] See Wang et al., Mol. Cell 3:543-553, 1999, the disclosures of which are hereby incorporated by reference. Cells then were treated as in Example 6 with the indicated compounds, Clotrimazole or 25-hydroxycholesterol (25-OH cholesterol). 25-OH cholesterol is known to repress the synthesis of SREBP-1c and is therefore used to eliminate the effects of this transcription factor on the FAS promoter (SRE).

[2] = mice fed the agonist; cited from earlier work
[3] = test system: SREBP-1c expression; assay: Real-time PCR of SREBP-1c expression in HepG2 cells; assay type: cell-based, human; settings: 100 nM, 24 hours, versus untreated
Experimental: Real time PCR was then performed on cDNA derived from RNA isolated form the treated HepG2 cells as follows. Real time quantitative PCR assays were performed using an Applied Biosystems 7700 sequence detector (Applied Biosystems). Each reaction mixture contained 50 ng cDNA, 1.25 pmol each forward and reverse primer, and […] 2× SYBR Green PCR master mix (Applied Biosystems) in a final volume of 25 μl. The PCR conditions were 50° C. for 2 min, 95° C. for 10 min, and 40 cycles of 95° C. for 15 sec and 60° C. for 1 min. Samples were run in duplicate for each primer pair. Expression of glyceraldehyde-3-phosphate dehydrogenase (GAPDH) was analyzed in parallel as an internal control. Each sample was normalized to GAPDH and is represented in the Figure showing the results as arbitrary units with the expression levels in untreated cells assigned a value of one. The primer sequences are as follows: human SREBP-1c forward [NT] ID NO:1); human SREBP-1c reverse [NT] ID NO:2); human GAPDH forward [NT] ID NO:3) and human GAPDH reverse [NT] ID NO:4).

[4] = test system: NIH3T3-L1 adipocytes; assay: Triglyceride content (Nile Red) of NIH3T3-L1 cells differentiated to adipocytes; assay type: cell-based; settings: T0901317 200 nM or Clotrimazole 7.5 μm, 7 days
Experimental: NIH 3T3-L1 cells were maintained in growth media consisting of Dulbecco's modified Eagle's medium (DMEM) supplemented with 10% calf bovine serum (CBS), 50 U/ml penicillin G and 50 μg/ml streptomycin sulfate. To induce NIH 3T3-L1 differentiation into adipocytes, confluent cells were transferred from their growth media to DMEM containing 10% fetal bovine serum (FBS), 5 μg/ml insulin, 0.5 mM 3-isobutyl-1-methylxanthine (IBMX) and 1 μM dexamethasone for 7 days. During the differentiation period, cells also optionally received 200 nM T0901317, 7.5 μM Clotrimazole or both.
NIH3T3-L1 cells were allowed to differentiate for 7 days in the presence of a well-established differentiation cocktail containing dexamethazole (1 μm), IBMX (0.5 mM) and insulin (5 μg/ml) in the absence or presence of T0901317 (200 nM) or Clotrimazole (7.5 μm). The cells then were fixed and stained with Nile Red, which stains triglycerides (TG) green, and DAPI to visualize nuclei (in blue). TG content of the cell reflected increased or decreased lipogenesis.

[5] = target: T1, human LXRα (Homo sapiens, UniProt Q13133); assay: Full-length hLXRα/hRXRα LXREx3 TK-Luc reporter assay in transfected CV-1 cells; assay type: cell-based; settings: 20 μM, 40 hours
T1 construct: expressed in transfected cells; host or cells: CV-1 cells
T1 sequence (Q13133 1-447): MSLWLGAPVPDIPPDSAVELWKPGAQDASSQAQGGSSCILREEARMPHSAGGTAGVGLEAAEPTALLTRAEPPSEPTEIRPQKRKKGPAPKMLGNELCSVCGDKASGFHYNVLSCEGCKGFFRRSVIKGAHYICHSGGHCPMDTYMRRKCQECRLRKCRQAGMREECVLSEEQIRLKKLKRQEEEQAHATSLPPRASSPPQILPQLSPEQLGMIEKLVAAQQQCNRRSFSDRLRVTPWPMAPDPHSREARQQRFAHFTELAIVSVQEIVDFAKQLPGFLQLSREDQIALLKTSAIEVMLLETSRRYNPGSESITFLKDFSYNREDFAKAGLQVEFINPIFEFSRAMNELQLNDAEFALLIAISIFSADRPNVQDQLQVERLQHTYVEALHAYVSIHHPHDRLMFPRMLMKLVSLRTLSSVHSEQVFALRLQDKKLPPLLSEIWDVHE
T1 sequence (P19793 1-462 partner): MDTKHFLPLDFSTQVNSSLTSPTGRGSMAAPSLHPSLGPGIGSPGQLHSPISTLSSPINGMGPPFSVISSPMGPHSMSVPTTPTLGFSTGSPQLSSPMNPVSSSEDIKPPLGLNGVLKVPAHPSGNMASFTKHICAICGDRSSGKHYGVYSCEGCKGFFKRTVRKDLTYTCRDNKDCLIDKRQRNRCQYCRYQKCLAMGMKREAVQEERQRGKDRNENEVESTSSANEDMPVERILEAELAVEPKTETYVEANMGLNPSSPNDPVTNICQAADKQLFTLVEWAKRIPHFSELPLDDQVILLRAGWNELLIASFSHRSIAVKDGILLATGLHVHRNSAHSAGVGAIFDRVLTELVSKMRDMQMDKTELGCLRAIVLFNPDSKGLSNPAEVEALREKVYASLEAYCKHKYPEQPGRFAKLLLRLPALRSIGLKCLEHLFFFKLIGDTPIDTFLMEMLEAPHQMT
Experimental: CV-1 cells were grown in DMEM supplemented with 10% resin-charcoal stripped fetal bovine serum, 50 U/ml penicillin G and 50 μg/ml streptomycin sulfate at 37° C. in 5% CO2. Cells were plated to 50-80% confluence one day prior to transfection using phenol red-free DMEM-FBS. The cells were transfected by lipofection using N-[1-(2,3-dioleoyloxy)propyl]-N,N,N-ammonium methyl sulfate according to manufacturer's instructions (Boehringer Mannheim).
Genes encoding the following full-length proteins, which are suitable for use in the studies described herein, were cloned into pCMX: human RXRα (Gene Bank accession X52773) and human LXRα (GenBank accession U22662). The cells were transfected with CMX-βgal and luciferase constructs. The CMX-βGal construct contained the ligand binding domain of human RXR (hRXRα) and the ligand binding domain of human LXRα (hLXRα) as indicated in FIG. 1. The luciferase reporter construct (LXREx3 TK-Luc) contained the herpes virus thymidine kinase promoter (−105/+51) linked to three copies of the response element LXRE. After transfection, the cells were treated with 20 μM of a synthetic azole test compound or vehicle alone for 40 hours in phenol red-free DMEM-FBS.

SMILES: C[C@H](CCCC(C)(C)O)[C@H]1CC[C@H]2[C@@H]3CC=C4C[C@@H](O)CC[C@]4(C)[C@H]3CC[C@]12C [25-OH cholesterol, 25-hydroxycholesterol]
- LXRα induction of SRE reporter activity ([1]; LXRα co-transfected (3-fold increase)): prevented this induction
- LXRβ induction of SRE reporter activity ([1]; LXRβ co-expression (almost 2-fold increase)): prevented this induction
- activity of reporter containing mutated SRE ([1]; SREm reporter): no significant effects
- repression of SRE reporter ([1]; absence of LXR): 50%

SMILES: O=S(=O)(c1ccccc1)N(CC(F)(F)F)c1ccc(C(O)(C(F)(F)F)C(F)(F)F)cc1 [T0901317]
- plasma triglycerides compared to mice fed a control diet [2]: elevated plasma triglycerides
- increase of SREBP-1c expression [3]: up to 4 fold
- TG content compared to differentiation cocktail only [4]: small overall increase in TG content

SMILES: CC(=O)N1CCN(c2ccc(OCC3COC(Cn4ccnc4)(c4ccc(Cl)cc4Cl)O3)cc2)CC1 (centres unmarked) [ketonazole]
- antagonism of constitutive activation mediated by LXR (hLXRα activity, LXREx3 TK-Luc) [5]: inactive
